target: human ACSS2 protein (Homo sapiens (Human), UniProt Q9NR19); experiment: ACSS2 Cell-Free Activity Assay (Cell-Free IC50); settings: 10 nM human ACSS2 protein, 90 minutes at 37 C, pyrophosphatase-coupled, Biomol Green absorbance at 620 nm; read-out: ACSS2 Biochemical IC50
Text: ACSS2 Cell-Free Activity Assay (Cell-Free IC50)

human ACSS2 protein, sequence (Q9NR19 whole entry): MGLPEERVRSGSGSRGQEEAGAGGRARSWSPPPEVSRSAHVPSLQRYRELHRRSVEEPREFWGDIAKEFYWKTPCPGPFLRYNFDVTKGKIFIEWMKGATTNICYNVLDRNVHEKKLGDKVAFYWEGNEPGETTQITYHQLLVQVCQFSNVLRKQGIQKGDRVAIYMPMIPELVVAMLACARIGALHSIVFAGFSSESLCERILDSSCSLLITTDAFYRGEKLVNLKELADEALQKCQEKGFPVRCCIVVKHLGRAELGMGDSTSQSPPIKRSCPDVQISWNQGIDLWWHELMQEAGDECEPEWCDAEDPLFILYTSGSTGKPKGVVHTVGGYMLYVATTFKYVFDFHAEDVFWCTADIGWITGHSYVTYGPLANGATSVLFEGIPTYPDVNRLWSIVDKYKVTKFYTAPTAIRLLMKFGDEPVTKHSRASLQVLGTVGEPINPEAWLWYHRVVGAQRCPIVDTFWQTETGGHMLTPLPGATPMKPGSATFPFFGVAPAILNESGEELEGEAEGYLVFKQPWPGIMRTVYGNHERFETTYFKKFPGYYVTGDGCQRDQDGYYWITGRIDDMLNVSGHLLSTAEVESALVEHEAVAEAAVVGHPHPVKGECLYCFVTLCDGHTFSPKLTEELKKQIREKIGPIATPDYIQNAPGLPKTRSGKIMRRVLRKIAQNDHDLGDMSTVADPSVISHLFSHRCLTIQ

| SMILES | IC50 [nM] |
| --- | --- |
| Cc1nn(-c2cc(-c3ccccc3)c(OC(F)F)c(-c3ccccc3)c2)cc1C(=O)Nc1cccc(C(C)(F)F)c1 [Compound 176, N-(3-(1,1-difluoroethyl)phenyl)-1-(2′-(difluoromethoxy)-[1,1′:3′,1″-terphenyl]-5′-yl)-3-methyl-1H-pyrazole-4-carboxamide] | 1 to 100 |
| Cc1nn(-c2ccc(OC(F)F)c(-c3ccccn3)c2)c(C)c1C(=O)Nc1cccc(C(C)(F)F)c1 [Compound 177, N-(3-(1,1-difluoroethyl)phenyl)-1-(4-(difluoromethoxy)-3-(pyridin-2-yl)phenyl)-3,5-dimethyl-1H-pyrazole-4-carboxamide] | 1 to 100 |
| Cc1nn(-c2ccc(OC(F)F)c(-c3ccccc3)c2)c(C)c1C(=O)Nc1cccc(C(C)(F)F)c1 [Compound 178] | 1 to 100 |
| Cc1nn(-c2ccc(OC(F)F)c(-c3cccnc3)c2)c(C)c1C(=O)Nc1cccc(C(C)(F)F)c1 [Compound 179, N-(3-(1,1-difluoroethyl)phenyl)-1-(4-(difluoromethoxy)-3-(pyridin-3-yl)phenyl)-3,5-dimethyl-1H-pyrazole-4-carboxamide] | 1 to 100 |
| COc1c(C)cc(N2N=C(C)C(C(=O)Nc3cccc(C(C)(F)F)c3)C2=O)cc1-c1ccccc1 (stereo not drawn) [Compound 180, N-[3-(1,1-difluoroethyl)phenyl]-1-(4-methoxy-3-methyl-5-phenyl-phenyl)-3-methyl-5-oxo-4H-pyrazole-4-carboxamide] | 1 to 100 |
| Cc1nn(-c2ccc(OC(F)F)c(-c3ccncc3)c2)cc1C(=O)Nc1cccc(C(C)(F)F)c1 [Compound 181, N-(3-(1,1-difluoroethyl)phenyl)-1-(4-(difluoromethoxy)-3-(pyridin-4-yl)phenyl)-3-methyl-1H-pyrazole-4-carboxamide] | 1 to 100 |
| Cc1nn(-c2ccc(OC(F)F)c(-c3cccnc3)c2)cc1C(=O)Nc1cccc(C(C)(F)F)c1 [Compound 182, N-(3-(1,1-difluoroethyl)phenyl)-1-(4-(difluoromethoxy)-3-(pyridin-3-yl)phenyl)-3-methyl-1H-pyrazole-4-carboxamide] | 1 to 100 |
| Cc1nn(-c2ccc(OC(F)F)c(-c3cccnc3)c2)c(OC(=O)N2CCN(C(C)(C)CO)CC2)c1C(=O)Nc1cccc(C(C)(F)F)c1 [Compound 183, 4-((3-(1,1-difluoroethyl)phenyl)carbamoyl)-1-(4-(difluoromethoxy)-3-(pyridin-3-yl)phenyl)-3-methyl-1H-pyrazol-5-yl 4-(1-hydroxy-2-methylpropan-2-yl)piperazine-1-carboxylate] | > 100 |
| Cc1nn(-c2ccc(OC(F)F)cc2)c(C)c1C(=O)Nc1cccc(C(C)(F)F)c1 [Compound 184, N-(3-(1,1-difluoroethyl)phenyl)-1-(4-(difluoromethoxy)phenyl)-3,5-dimethyl-1H-pyrazole-4-carboxamide] | > 100 |
| Cc1nn(-c2ccc(OC(F)F)cc2)c(OC(=O)N2CCN(C(C)(C)CO)CC2)c1C(=O)Nc1cccc(C(C)(F)F)c1 [Compound 185, 4-((3-(1,1-difluoroethyl)phenyl)carbamoyl)-1-(4-(difluoromethoxy)phenyl)-3-methyl-1H-pyrazol-5-yl 4-(1-hydroxy-2-methylpropan-2-yl)piperazine-1-carboxylate] | > 100 |
| Cc1nn(-c2ccc(OC(F)F)c(-c3ccccc3)c2)cc1C(=O)Nc1cccc(C(C)(F)F)c1 [Compound 186, N-(3-(1,1-difluoroethyl)phenyl)-1-(6-(difluoromethoxy)-[1,1’-biphenyl]-3-yl)-3-methyl-1H-pyrazole-4-carboxamide] | 1 to 100 |
| Cc1nn(-c2ccc(OC(F)F)c(-c3cccnc3)c2)c(OC(=O)N2CCN(CCO)CC2)c1C(=O)Nc1cccc(C(C)(F)F)c1 [Compound 187, 4-((3-(1,1-difluoroethyl)phenyl)carbamoyl)-1-(4-(difluoromethoxy)-3-(pyridin-3-yl)phenyl)-3-methyl-1H-pyrazol-5-yl 4-(2-hydroxyethyl)piperazine-1-carboxylate] | > 100 |
